# Data reported in US9504676B2, “Molecules inhibiting a metabolic pathway involving the Syk protein tyrosine kinase and method for identifying said molecules” (CENTRE NATIONAL DE LA RECHERCHE SCIENTIFIQUE, priority 2008, dated 2016).
# Test system: Btk
# Assay: Phosphorylation and FcεRI-induced kinase activity of Btk in RBL-2H3 cells
# Format: cell-based, rat
# Description: To examine the functional similarities with G4G11, the inventors explored the biological effects of C-13 on mast cell activation. […] Similarly to the intrabody G4G11, C-13 inhibited the phosphorylation and FcεRI-induced kinase activity of Btk (FIG. 2A) and the phosphorylation of PLC-γ1 and PLC-γ2, the two PLC-γ isoforms expressed in mast cells (FIGS. 2A, C). PTK Lyn phosphorylates both Syk and Btk giving rise to the complete activation thereof and the subsequent phosphorylation of PLC-γ^18.
# • 1) Chemical products and antibodies. A chemical bank of 3000 molecules (a varied subset) was acquired from ChemBridge, Inc. (San Diego, Calif.). Stocks of solutions of small molecules were prepared at a rate of 10 mM in DMSO (dimethylsulphoxide), except for C-13 (methyl 2-{5-[(3-benzyl-4-oxo-2-thioxo-1,3-thiazolidin-5-ylidene)methyl]-2-furyl}benzoate, ChemBridge ID No. 6197026) prepared in DMF (dimethylformamide). […] The binding of G4G11 with Syk was assessed by adding the 9E10 monoclonal antibody conjugated with HRP detecting the amino acid sequence EQKLISEEDLN of human c-myc protein located at the C-terminal end of the scFv fragment. To generate Syk mutants, targeted mutagenesis was used on GST:Syk 6-242 protein and the binding of G4G11 with the mutants was assessed in the presence of 5 μM of C-13. • 3) Cells, culture conditions and functional tests. […]
compound,measurement,value
"COC(=O)c1ccccc1-c1ccc(/C=C2/SC(=S)N(Cc3ccccc3)C2=O)o1 [Molecule C-13, methyl 2-{5-[(3-benzyl-4-oxo-2-thioxo-1,3-thiazolidin-5-ylidene)methyl]-2-furyl}benzoate]",phosphorylation and FcεRI-induced kinase activity of Btk,inhibited
